Experiments:
Format in all cases: in vivo
Amaranthus retroflexus [1] = experiment: Pre-emergence herbicidal action against AMARE; details: visual score after 3 weeks vs untreated controls
How it was run: (§1)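 Herbicidal effect was assessed 3 weeks after treatment by visual comparison with untreated controls, 100% denoting dead plants. Aqueous WP or EC preparations had been applied at 600 to 800 l/ha with 0.2% wetting agent to the soil covering freshly sown seeds.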

Matricaria inodora [2] = experiment: Pre-emergence herbicidal action against MATIN; details: visual score after 3 weeks vs untreated controls
How it was run: as §1

Veronica persica [3] = experiment: Post-emergence herbicidal action against VERPE; details: 20 g/ha, visual assessment about 3 weeks after treatment
How it was run: (§2)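 Post-emergence greenhouse test; one-leaf stage, 2–3 wk post-sowing, sandy loam. Foliar spray of WP/EC in water, 600–800 l/ha, +0.2% wetting agent. Visual % action at ~3 wk vs untreated (100% = plants dead).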

Digitaria sanguinalis = experiment: Pre-emergence herbicidal action against DIGSA
Source text: (§3) Seeds of monocotyledonous and dicotyledonous weed plants and crop plants are laid out in sandy loam soil in wood-fiber pots and covered with soil. The compounds of the invention, formulated in the form of wettable powders (WP) or as emulsion concentrates (EC), are then applied to the surface of the covering soil in the form of an aqueous suspension or emulsion at a water application rate equivalent to 600 to 800 l/ha, with addition of 0.2% wetting agent. After the treatment, the pots are placed in a greenhouse and kept under good growth conditions for the trial plants. The damage to the test plants is scored visually after a test period of 3 weeks by comparison with untreated controls (herbicidal activity in percent (%): 100% activity=the plants have died, 0% activity=like control plants). […] The tables below illustrate, in an illustrative manner, the post-emergence herbicidal action of the compounds of the invention, the herbicidal activity being stated in percent.

Alopecurus myosuroides [4] = experiment: Post-emergence herbicidal action against ALOMY
How it was run: as §2

Setaria viridis [5] = experiment: Pre-emergence herbicidal action against SETVI
How it was run: as §1

Polygonum convolvulus = experiment: Pre-emergence herbicidal action against POLCO
Source text: as §3

Amaranthus retroflexus [6] = experiment: Post-emergence herbicidal action against AMARE; details: visual assessment about 3 weeks after treatment
How it was run: as §2

Viola tricolor [7] = experiment: Post-emergence herbicidal action against VIOTR
How it was run: as §2

Abutilon theophrasti [8] = experiment: Post-emergence herbicidal action against ABUTH
How it was run: as §2

Pharbitis purpurea = experiment: Post-emergence herbicidal action against PHBPU; details: 20 g/ha, visual assessment about 3 weeks after treatment
How it was run: as §2

Matricaria inodora [9] = experiment: Post-emergence herbicidal action against MATIN; details: 20 g/ha, visual assessment about 3 weeks after treatment
How it was run: as §2

Setaria viridis [10] = experiment: Post-emergence herbicidal action against SETVI; details: visual assessment about 3 weeks after treatment
How it was run: as §2

Echinochloa crus-galli [11] = experiment: Pre-emergence herbicidal action against ECHCG; details: 80 g/ha; visual score after 3 weeks vs untreated controls
How it was run: as §1

Veronica persica [12] = experiment: Pre-emergence herbicidal action against VERPE; details: 80 g/ha
How it was run: as §1

Alopecurus myosuroides [13] = experiment: Pre-emergence herbicidal action against ALOMY; details: visual score after 3 weeks vs untreated controls
How it was run: as §1

Abutilon theophrasti [14] = experiment: Pre-emergence herbicidal action against ABUTH; details: visual score after 3 weeks vs untreated controls
How it was run: as §1

Viola tricolor [15] = experiment: Pre-emergence herbicidal action against VIOTR
How it was run: as §1

Lolium rigidum = experiment: Pre-emergence herbicidal action against LOLRI; details: 80 g/ha
Source text: as §3

Avena fatua [16] = experiment: Pre-emergence herbicidal action against AVEFA; details: 80 g/ha; visual score after 3 weeks vs untreated controls
Source text: as §3

Echinochloa crus-galli [17] = experiment: Post-emergence herbicidal action against ECHCG; details: 20 g/ha, visual assessment about 3 weeks after treatment
How it was run: as §2

Avena fatua [18] = experiment: Post-emergence herbicidal action against AVEFA; details: 20 g/ha, visual assessment about 3 weeks after treatment
Experimental: Seeds of monocotyledonous and dicotyledonous weed and crop plants are laid out in sandy loam soil in wood-fiber pots, covered with soil and cultivated in a greenhouse under good growth conditions. 2 to 3 weeks after sowing, the test plants are treated at the one-leaf stage. The compounds of the invention, formulated in the form of wettable powders (WP) or as emulsion concentrates (EC), are then sprayed onto the green parts of the plants in the form of an aqueous suspension or emulsion at a water application rate equivalent to 600 to 800 l/ha, with addition of 0.2% wetting agent. After the test plants have been left to stand in the greenhouse under optimal growth conditions for about 3 weeks, the action of the preparations is assessed visually in comparison to untreated controls (herbicidal action in percent (%): 100% activity=the plants have died, 0% activity=like control plants). […] The tables below illustrate, in an illustrative manner, the post-emergence herbicidal action of the compounds of the invention, the herbicidal activity being stated in percent.

Row | Compound | Pre-emergence action against AMARE (Amaranthus retroflexus [1]; 20 g/ha) [%] | Pre-emergence action against AMARE (Amaranthus retroflexus [1]; 80 g/ha) [%] | Pre-emergence action against MATIN (Matricaria inodora [2]; 20 g/ha) [%] | Pre-emergence action against MATIN (Matricaria inodora [2]; 80 g/ha) [%] | Post-emergence action against ALOMY (Alopecurus myosuroides [4]; 20 g/ha) [%] | Pre-emergence action against SETVI (Setaria viridis [5]; 80 g/ha) [%] | Post-emergence action against AMARE in % (Amaranthus retroflexus [6]; 5 g/ha) [%] | Post-emergence action against AMARE in % (Amaranthus retroflexus [6]; 20 g/ha) [%] | Post-emergence action against VIOTR in % (Viola tricolor [7]; 20 g/ha) [%] | Post-emergence action against ABUTH (Abutilon theophrasti [8]; 5 g/ha) [%] | Post-emergence action against ABUTH (Abutilon theophrasti [8]; 20 g/ha) [%] | Post-emergence action against PHBPU in % (Pharbitis purpurea) [%] | Post-emergence action against SETVI in % (Setaria viridis [10]; 20 g/ha) [%] | Pre-emergence action against ECHCG (Echinochloa crus-galli [11]) [%] | Pre-emergence action against ALOMY (Alopecurus myosuroides [13]; 80 g/ha) [%] | Pre-emergence action against ABUTH (Abutilon theophrasti [14]; 20 g/ha) [%] | Pre-emergence action against ABUTH (Abutilon theophrasti [14]; 80 g/ha) [%] | Pre-emergence action against VIOTR (Viola tricolor [15]; 80 g/ha) [%] | Pre-emergence action against LOLRI (Lolium rigidum) [%] | Post-emergence action against ALOMY (Alopecurus myosuroides [4]; 5 g/ha) [%] | also measured
1 | CN(CC(F)F)C(=O)c1c(C(F)(F)F)ccc(C(=O)Nc2nnnn2C)c1Cl [Example 1-128] | 100 | 100 | 80 | 90 | 80 | 100 | 100 | 100 | 100 | 80 | 90 | 90 | 90 | 100 | 100 | 100 | 100 | 100 |  |  | Post-emergence action against VERPE in % (Veronica persica [3]): 90%; Pre-emergence action against DIGSA (Digitaria sanguinalis; 20 g/ha): 100%; Pre-emergence action against DIGSA (Digitaria sanguinalis; 80 g/ha): 100%; Pre-emergence action against SETVI (Setaria viridis [5]; 20 g/ha): 90%; Pre-emergence action against POLCO (Polygonum convolvulus; 20 g/ha): 80%; Pre-emergence action against POLCO (Polygonum convolvulus; 80 g/ha): 80%; Post-emergence action against VIOTR in % (Viola tricolor [7]; 5 g/ha): 90%; Post-emergence action against MATIN in % (Matricaria inodora [9]): 80%; Pre-emergence action against VERPE (Veronica persica [12]): 100%; Pre-emergence action against VIOTR (Viola tricolor [15]; 20 g/ha): 100%
2 | CN(C)C(=O)c1c(Br)ccc(C(=O)Nc2nnnn2C)c1Cl [Example 1-191] |  | 100 | 80 | 100 | 100 | 100 | 100 | 100 |  | 80 | 90 |  | 100 | 90 | 100 | 100 | 100 | 100 | 80 | 80 | Pre-emergence action against AVEFA (Avena fatua [16]): 90%; Post-emergence action against ECHCG in % (Echinochloa crus-galli [17]): 100%; Post-emergence action against AVEFA in % (Avena fatua [18]): 90%; Pre-emergence action against VERPE (Veronica persica [12]): 90%; Pre-emergence action against ALOMY (Alopecurus myosuroides [13]; 20 g/ha): 90%
3 | CCN(C)C(=O)c1c(Br)ccc(C(=O)Nc2nnnn2C)c1Cl [Example 1-192] | 80 | 100 |  | 100 | 100 | 100 | 100 | 100 | 80 | 90 | 90 | 80 | 100 | 80 | 100 | 80 | 100 | 100 | 80 | 90 | Pre-emergence action against AVEFA (Avena fatua [16]): 80%; Post-emergence action against ECHCG in % (Echinochloa crus-galli [17]): 100%; Post-emergence action against SETVI in % (Setaria viridis [10]; 5 g/ha): 100%
4 | CCN(C(=O)c1c(C(F)F)ccc(C(=O)Nc2nnnn2CC)c1Cl)C1CC1 [Example 2-167] | 100 | 100 | 100 | 100 | 100 | 100 | 100 | 100 | 100 | 90 | 90 | 90 | 90 | 90 | 100 | 100 | 100 | 100 | 80 | 80 | Post-emergence action against VERPE in % (Veronica persica [3]): 80%; Post-emergence action against ECHCG in % (Echinochloa crus-galli [17]): 90%; Post-emergence action against AVEFA in % (Avena fatua [18]): 80%; Post-emergence action against MATIN in % (Matricaria inodora [9]): 80%; Post-emergence action against SETVI in % (Setaria viridis [10]; 5 g/ha): 90%; Pre-emergence action against VIOTR (Viola tricolor [15]; 20 g/ha): 80%
5 | CCN(C)C(=O)c1c(Br)ccc(C(=O)Nc2nnnn2CC)c1Cl [Example 2-192] | 100 | 100 | 100 | 100 | 100 | 100 | 100 | 100 | 100 | 80 | 80 | 80 | 100 | 90 | 100 | 100 | 100 | 100 | 80 | 80 | Pre-emergence action against AVEFA (Avena fatua [16]): 80%; Post-emergence action against ECHCG in % (Echinochloa crus-galli [17]): 100%; Post-emergence action against AVEFA in % (Avena fatua [18]): 80%; Post-emergence action against SETVI in % (Setaria viridis [10]; 5 g/ha): 100%; Pre-emergence action against VERPE (Veronica persica [12]): 80%
